In test [1] the target is human muscle-type nicotinic receptor (Homo sapiens, UniProt P02708+P07510+Q07001). In words: biochemical. Type of test: binding. Particulars: read-out: % inhibition N muscle-type (h) (antagonist radioligand).
The target of test [2] is human α7 neuronal nicotinic receptor (Homo sapiens, UniProt P36544). The test is described as follows: biochemical. Particulars: read-out: % inhibition N neuronal alpha-BGTX-sensitive (alpha 7) (antagonist radioligand). Type of test: binding.
Chain of human α7 neuronal nicotinic receptor (P36544 23-502): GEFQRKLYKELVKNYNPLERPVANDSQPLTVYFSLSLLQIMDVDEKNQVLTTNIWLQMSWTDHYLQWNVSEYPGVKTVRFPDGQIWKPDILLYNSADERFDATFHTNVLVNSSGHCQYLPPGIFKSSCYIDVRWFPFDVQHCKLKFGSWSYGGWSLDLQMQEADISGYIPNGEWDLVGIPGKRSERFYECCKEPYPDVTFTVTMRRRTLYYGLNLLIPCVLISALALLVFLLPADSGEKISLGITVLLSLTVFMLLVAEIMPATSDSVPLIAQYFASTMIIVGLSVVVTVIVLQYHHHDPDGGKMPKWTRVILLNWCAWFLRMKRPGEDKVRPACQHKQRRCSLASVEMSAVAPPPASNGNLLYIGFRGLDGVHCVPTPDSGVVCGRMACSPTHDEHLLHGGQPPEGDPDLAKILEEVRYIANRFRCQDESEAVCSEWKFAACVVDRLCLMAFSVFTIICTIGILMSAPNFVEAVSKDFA
For test [3], the target named is T1, human dopamine D1 receptor (Homo sapiens, UniProt P21728).
T1 construct: expressed in transfected cells; host or cells: CHO cells (membrane homogenates)
T1 sequence (P21728 whole entry): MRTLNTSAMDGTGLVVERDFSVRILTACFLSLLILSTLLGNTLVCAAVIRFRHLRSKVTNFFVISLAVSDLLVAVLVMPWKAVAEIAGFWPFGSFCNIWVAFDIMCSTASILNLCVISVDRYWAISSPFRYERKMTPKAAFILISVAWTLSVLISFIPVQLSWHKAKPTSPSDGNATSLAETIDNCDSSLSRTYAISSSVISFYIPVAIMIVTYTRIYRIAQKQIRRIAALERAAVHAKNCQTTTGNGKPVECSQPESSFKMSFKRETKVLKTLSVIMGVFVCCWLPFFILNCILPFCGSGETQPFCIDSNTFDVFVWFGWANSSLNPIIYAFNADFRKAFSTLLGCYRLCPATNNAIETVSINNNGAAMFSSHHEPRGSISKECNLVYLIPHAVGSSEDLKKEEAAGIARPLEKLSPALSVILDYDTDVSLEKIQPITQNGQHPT
In words: Human dopamine D1 receptor radioligand binding assay (antagonist radioligand). As to conditions: 1 μmmole test compound; 0.3 nM [3H]SCH 23390; transfected CHO cell membranes; one single experiment; 0.0003 µM. The protocol:
Human Dopamine D1 Receptor (Antagonist Radioligand):
The purpose is to evaluate the affinity of compounds for the human dopamine D1 receptor in transfected CHO cells determined in a radioligand binding assay according to Zhou et al in Nature (1990) 347:76. The experimental protocol is as follows. Cell membrane homogenates (48 μg protein) are incubated for 60 minutes at 22° C. with 0.3 nM [^3H]SCH 23390 in the absence or presence of the test compound in a buffer containing 50 mM Tris-HCl (pH 7.4), 5 mM KCl, 5 mM MgCl2, 1.5 mM CaCl2 and 5 mM EDTA. Non-specific binding is determined in the presence of 1 μM SCH 23390. Following incubation, the samples are filtered rapidly under vacuum through glass fiber filters (GF/B, Packard) presoaked with 0.3% PEI and rinsed several times with ice-cold 50 mM Tris-HCl using a 96-sample cell harvester (Unifilter, Packard). The filters are dried then counted for radioactivity in a scintillation counter (Topcount, Packard) using a scintillation cocktail (Microscint 0, Packard). The results are expressed as a percent inhibition of the control radioligand specific binding. The standard reference compound is SCH 23390, which is tested in each experiment at several concentrations to obtain a competition curve from which its IC50 is calculated, and from which the % inhibition at 1 μM as indicated in the following table is obtained.

The conditions of test [4]: relative to morphine; cited from earlier work.

In general, inhibition refers to the change of the read-out against control, counted positive when it falls.

Chain of human muscle-type nicotinic receptor (P07510 23-517): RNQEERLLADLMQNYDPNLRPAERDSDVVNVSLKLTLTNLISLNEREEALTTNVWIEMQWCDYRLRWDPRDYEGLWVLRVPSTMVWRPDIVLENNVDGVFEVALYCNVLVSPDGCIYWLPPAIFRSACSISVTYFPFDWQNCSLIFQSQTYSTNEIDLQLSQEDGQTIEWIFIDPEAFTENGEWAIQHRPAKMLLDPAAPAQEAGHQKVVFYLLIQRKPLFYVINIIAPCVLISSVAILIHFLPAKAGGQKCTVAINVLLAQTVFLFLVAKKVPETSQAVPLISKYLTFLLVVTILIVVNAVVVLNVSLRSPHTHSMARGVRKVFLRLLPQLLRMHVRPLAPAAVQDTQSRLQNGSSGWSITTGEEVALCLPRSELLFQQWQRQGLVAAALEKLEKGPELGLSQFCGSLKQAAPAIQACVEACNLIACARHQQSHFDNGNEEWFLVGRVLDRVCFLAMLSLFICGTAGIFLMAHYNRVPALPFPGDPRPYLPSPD
Chain of human muscle-type nicotinic receptor (Q07001 22-517): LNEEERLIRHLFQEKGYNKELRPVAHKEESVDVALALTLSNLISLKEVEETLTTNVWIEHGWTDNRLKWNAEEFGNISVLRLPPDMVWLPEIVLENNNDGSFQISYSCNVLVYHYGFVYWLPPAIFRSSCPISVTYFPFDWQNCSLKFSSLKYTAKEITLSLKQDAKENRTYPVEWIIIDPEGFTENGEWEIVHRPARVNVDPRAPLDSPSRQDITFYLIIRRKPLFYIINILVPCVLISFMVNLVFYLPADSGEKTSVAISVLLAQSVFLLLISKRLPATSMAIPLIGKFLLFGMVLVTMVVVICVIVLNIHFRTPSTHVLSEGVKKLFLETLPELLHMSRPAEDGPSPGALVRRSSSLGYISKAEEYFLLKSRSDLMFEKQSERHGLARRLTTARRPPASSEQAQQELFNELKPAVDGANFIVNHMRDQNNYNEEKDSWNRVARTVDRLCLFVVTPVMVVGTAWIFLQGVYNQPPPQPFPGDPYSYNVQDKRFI
Chain of human muscle-type nicotinic receptor (P02708 21-457): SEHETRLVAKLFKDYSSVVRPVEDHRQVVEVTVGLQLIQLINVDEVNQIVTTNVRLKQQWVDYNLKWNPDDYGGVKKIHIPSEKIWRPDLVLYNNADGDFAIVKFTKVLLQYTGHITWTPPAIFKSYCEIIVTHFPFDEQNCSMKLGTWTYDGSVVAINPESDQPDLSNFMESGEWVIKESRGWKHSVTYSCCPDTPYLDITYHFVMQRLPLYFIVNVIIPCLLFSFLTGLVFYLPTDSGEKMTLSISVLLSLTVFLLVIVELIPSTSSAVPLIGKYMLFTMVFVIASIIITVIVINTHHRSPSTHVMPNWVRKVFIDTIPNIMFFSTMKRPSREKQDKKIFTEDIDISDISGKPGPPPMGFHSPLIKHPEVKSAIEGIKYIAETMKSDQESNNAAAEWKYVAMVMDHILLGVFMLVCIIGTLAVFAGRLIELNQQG
Chain of human muscle-type nicotinic receptor (P11230 24-501, further chain): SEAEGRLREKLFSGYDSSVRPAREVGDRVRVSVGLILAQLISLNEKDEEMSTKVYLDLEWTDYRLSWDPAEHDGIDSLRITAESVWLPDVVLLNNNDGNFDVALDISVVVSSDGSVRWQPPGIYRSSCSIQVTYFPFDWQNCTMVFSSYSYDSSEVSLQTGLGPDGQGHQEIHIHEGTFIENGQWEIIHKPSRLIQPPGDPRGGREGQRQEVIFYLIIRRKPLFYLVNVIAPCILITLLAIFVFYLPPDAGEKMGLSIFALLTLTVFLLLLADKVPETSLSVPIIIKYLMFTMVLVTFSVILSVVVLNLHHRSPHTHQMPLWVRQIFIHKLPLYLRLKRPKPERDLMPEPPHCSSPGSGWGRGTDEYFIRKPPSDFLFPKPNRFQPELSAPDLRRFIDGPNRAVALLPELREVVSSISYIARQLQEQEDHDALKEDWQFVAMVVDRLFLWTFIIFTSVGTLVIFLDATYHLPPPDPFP

For `CCN1CCC2CC1(C(O)c1cccnc1)C2` (stereo not shown) [Compound 11], the inhibition at 0.0005 µM in test [1] came to 17%. In addition, the inhibition at 50 pM in test [2] was -1%.
`CCN1CCC2CC1(C(O)c1cccnc1)C2` (stereo not shown) [Compound 19a]: the “% inhibition D1 (h) (antagonist radioligand)” value in test [3] was 9%.
Consider `Clc1ccc(C2CC3CCC2N3)cn1` (stereo not shown) [epibatidine], for which the “analgesic potency higher than that of morphine” value in test [4] was “about 200 fold”.

The values are drawn from US8809365B2, “1-substituted 2-azabicyclo [3.1.1] heptyl derivatives useful as nicotinic acetylcholine receptor modulators for treating neurologic disorders” (Universiteit Gent, priority 2009, dated 2014).
